In patent publication US20230247990A1, “Stable Botanical Antimicrobial Compositions” (The Trustees of Columbia University in the city of New York, priority 2020, published 2023):

Assay: Accelerated aging method, long term stability at 45° C.
Format: physicochemical
Settings: temperature higher than 40° C., including 45° C. of the accelerated aging method
Description: In certain embodiments, the 1 year period is achieved through simulating such conditions with the accelerated aging method. The accelerated aging method can be conducted by keeping the solutions at 45° C. for 8 weeks, which is equivalent to stability of 1 year under regular, room temperature conditions.
The accelerated aging method was conducted by keeping the solutions at 45° C. for 8 weeks, which is equivalent to stability of 1 year at regular, room temperature conditions.

- Solubility in solvents at elevated temperature: gradually precipitates
Compound: C=CCCCCCCCCC(=O)O [Undecylenic acid]
